Where two headings read alike, the source gives them in different places.
How the values were obtained:
Human Full Length PARG = Human Full Length PARG (Homo sapiens (Human), UniProt Q86W56); assay: PARG enzyme assay (TR-FRET); type: biochemical
PARG in HeLa cell line = assay: PARG cell assay (PAR chain immunofluorescence after MMS); type: cell-based; details: HeLa cells
Description: This method is based on the detection of endogenous levels of poly (ADP) ribose chains present in the nucleus of HeLa cell line using indirect immunofluorescence. MMS stimulation increases PAR chains for up to 25 mins. After that point, PARG is active and breaks down the PAR chains, until by one hour after stimulation no PAR chains are detectable. Inhibition of PARG maintains PAR chains.
Briefly, following compound treatment and treatment with the DNA damaging agent methylmethanesulfonate (MMS), the cell monolayer is fixed, then permeabilised and incubated with a mouse monoclonal antibody raised against multimers of poly(ADP) ribose.
At the end of the 1 h dosing period, MMS was added to duplicates at a final concentration of 50 μg/mL, for a further hour.
Media was tipped off and the cells fixed with 50 μL ice-cold 95% MetOH/PBS for 15 mins at −20° C. Following a PBS wash, 50 μL PBS/0.1% Triton was added to the cells for 20 mins. Following another PBS wash, anti-PAR antibody (Calbiochem AM80) was diluted 1:4000 in a buffer (PBS+0.5% FBS+0.05% Tween20) and added to the cells and incubated overnight at 4° C.
Cells were washed three times with PBS and the plate sealed with a light-proof seal.

[1] = Homo sapiens, MMS treatment, read-out: PARG Cell IC50
[2] = read-out: PARG Biochem IC50 Geomean
[3] = Homo sapiens, MMS 50 μg/mL, read-out: PARG Cell IC50 Geomean
[4] = MMS 50 μg/mL, read-out: PARG Cell IC50 Geomean

Human Full Length PARG, sequence (Q86W56 whole entry): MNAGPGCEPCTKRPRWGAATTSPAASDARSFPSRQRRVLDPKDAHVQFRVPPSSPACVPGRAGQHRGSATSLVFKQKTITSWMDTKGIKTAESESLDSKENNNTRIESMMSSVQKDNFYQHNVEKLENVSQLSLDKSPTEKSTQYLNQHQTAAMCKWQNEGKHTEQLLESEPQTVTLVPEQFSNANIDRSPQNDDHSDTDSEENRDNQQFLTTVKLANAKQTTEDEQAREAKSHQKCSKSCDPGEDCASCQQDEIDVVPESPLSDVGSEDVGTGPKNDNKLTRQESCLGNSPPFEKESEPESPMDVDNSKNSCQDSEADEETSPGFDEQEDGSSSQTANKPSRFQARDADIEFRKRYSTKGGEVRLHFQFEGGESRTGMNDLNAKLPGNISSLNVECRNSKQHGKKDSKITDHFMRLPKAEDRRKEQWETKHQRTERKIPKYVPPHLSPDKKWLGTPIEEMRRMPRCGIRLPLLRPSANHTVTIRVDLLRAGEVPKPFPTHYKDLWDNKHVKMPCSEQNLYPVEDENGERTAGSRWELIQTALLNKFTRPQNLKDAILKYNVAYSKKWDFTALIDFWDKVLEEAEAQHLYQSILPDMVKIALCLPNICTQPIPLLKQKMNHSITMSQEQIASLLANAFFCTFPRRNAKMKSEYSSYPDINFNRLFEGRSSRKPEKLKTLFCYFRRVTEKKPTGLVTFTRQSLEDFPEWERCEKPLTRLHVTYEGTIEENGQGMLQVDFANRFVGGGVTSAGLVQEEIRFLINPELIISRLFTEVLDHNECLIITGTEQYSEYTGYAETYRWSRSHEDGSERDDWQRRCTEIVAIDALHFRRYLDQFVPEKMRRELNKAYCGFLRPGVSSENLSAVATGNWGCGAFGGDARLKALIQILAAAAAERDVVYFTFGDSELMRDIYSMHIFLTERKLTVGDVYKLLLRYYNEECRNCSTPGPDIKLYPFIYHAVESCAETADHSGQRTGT

Row | SMILES | IC50 (Human Full Length PARG; read-out: PARG Biochem IC50) [nM] | IC50 (PARG in HeLa cell line; [1]) [nM] | IC50 (Human Full Length PARG; [2]) [nM] | IC50 (PARG in HeLa cell line; [3]) [nM] | further results
1 | Cc1cc(Cn2c(=O)c3cc(S(=O)(=O)NC4(C)CC4)ccc3n(C(F)F)c2=O)on1 [Example 605, 1-(Difluoromethyl)-N-(1-methylcyclopropyl)-3-[(3-methylisoxazol-5-yl)methyl]-2,4-dioxo-quinazoline-6-sulfonamide] | 1370 | 588 |  |  | 
2 | Cc1cncc(Cn2c(=O)c3cc(S(=O)(=O)NC4(C)CC4)ccc3n(C)c2=O)c1 [Example 418, 1-Methyl-N-(1-methylcyclopropyl)-3-[(5-methyl-3-pyridyl)methyl]-2,4-dioxo-quinazoline-6-sulfonamide] | 2270 | 2110 |  |  | 
3 | Cc1ncc(Cn2c(=O)[nH]c3ccc(S(=O)(=O)NC4(C)CC4)cc3c2=O)s1 [Example 220, N-(1-Methylcyclopropyl)-3-[(2-methylthiazol-5-yl)methyl]-2,4-dioxo-1H-quinazoline-6-sulfonamide] |  |  | 273 | 481 | 
4 | CCC(CC)Cn1c(=O)n(Cc2cc(C)no2)c(=O)c2cc(S(=O)(=O)NC3(C)CC3)ccc21 [Example 470, 1-(2-Ethylbutyl)-N-(1-methylcyclopropyl)-3-[(3-methylisoxazol-5-yl)methyl]-2,4-dioxo-quinazoline-6-sulfonamide] | 546 | 266 |  |  | 
5 | Cc1ccc(Cn2c(=O)c3cc(S(=O)(=O)NC4(C)CC4)ccc3n(C)c2=O)cn1 [Example 423, 1-Methyl-N-(1-methylcyclopropyl)-3-[(6-methyl-3-pyridyl)methyl]-2,4-dioxo-quinazoline-6-sulfonamide] | 1600 | 1350 |  |  | 
6 | Cc1cc(Cn2c(=O)n(C)c(=O)c3cc(S(=O)(=O)NC4(C)CC4)c(F)cc32)n(C)n1 [Example 213] |  |  | 473 | 787 | 
7 | CCn1c(=O)n(Cc2cnn(C)c2)c(=O)c2cc(S(=O)(=O)NC3(C)CC3)c(F)cc21 [Example 389, 1-Ethyl-7-fluoro-N-(1-methylcyclopropyl)-3-[(1-methylpyrazol-4-yl)methyl]-2,4-dioxo-quinazoline-6-sulfonamide] |  |  | 60 | 79 | 
8 | Cc1cc(Cn2c(=O)n(C)c(=O)c3cc(S(=O)(=O)NC4(C)CC4)ccc32)n(C)n1 [Example 127] |  |  | 384 | 413 | 
9 | CNCCCn1c(=O)n(Cc2cc(C)no2)c(=O)c2cc(S(=O)(=O)NC3(C)CC3)ccc21 [Example 250] |  |  | 323 | 328 | 
10 | Cc1cc(Cn2c(=O)c3cc(S(=O)(=O)NC4(C)CC4)ccc3n(CCN3CCOCC3)c2=O)on1 [Example 276] |  |  | 255 | 536 | 
11 | Cc1cc(Cn2c(=O)c3cc(S(=O)(=O)NC4(C)CC4)ccc3n(CCCN(C)C)c2=O)on1 [Example 247] |  |  | 404 | 310 | 
12 | Cc1cc(Cn2c(=O)c3cc(S(=O)(=O)NC4(C)CC4)ccc3n(CC3CCCCC3)c2=O)on1 [Example 290] |  |  | 497 | 260 | 
13 | C#CCn1c(=O)n(CC#N)c(=O)c2cc(S(=O)(=O)NC3(C)CC3)ccc21 [Example 194] |  |  | 245 |  | IC50 (PARG in HeLa cell line; [4]): 273 nM
14 | Cc1cc(Cn2c(=O)c3cc(S(=O)(=O)NC4(C)CC4)ccc3n(C3COC3)c2=O)on1 [Example 339] |  |  | 479 | 487 | 
15 | Cc1cc(Cn2c(=O)c3cc(S(=O)(=O)NC4(C)CC4)cc(Br)c3n(C)c2=O)on1 [Example 482, 8-Bromo-1-methyl-N-(1-methylcyclopropyl)-3-[(3-methylisoxazol-5-yl)methyl]-2,4-dioxo-quinazoline-6-sulfonamide] | 830 | 274 |  |  | 
16 | COCCn1c(=O)n(Cc2cc(C)no2)c(=O)c2cc(S(=O)(=O)NC3(C)CC3)ccc21 [Example 274] |  |  | 237 |  | IC50 (PARG in HeLa cell line; [4]): 166 nM
17 | C#CCn1c(=O)n(Cc2cc(C)no2)c(=O)c2cc(S(=O)(=O)NC3(C)CC3)ccc21 [Example 198] |  |  | 105 | 76 | 
18 | Cc1cc(Cn2c(=O)c3cc(S(=O)(=O)NC4(C)CC4)ccc3n(CC3CCCN3C)c2=O)on1 (stereo not shown) [Example 249] |  |  | 402 | 315 | 
19 | Cn1cc(Cn2c(=O)c3cc(S(=O)(=O)NC4(C)CC4)c(F)cc3n(CC3CCOC3)c2=O)cn1 (stereo not shown) [Example 395, 7-Fluoro-N-(1-methylcyclopropyl)-3-[(1-methylpyrazol-4-yl)methyl]-2,4-dioxo-1-(tetrahydrofuran-3-ylmethyl)quinazoline-6-sulfonamide] |  |  | 60 | 156 | 

Continued, in another order:

Row | IC50 (Human Full Length PARG; read-out: PARG Biochem IC50) [nM] | IC50 (PARG in HeLa cell line; [1]) [nM] | IC50 (Human Full Length PARG; [2]) [nM] | IC50 (PARG in HeLa cell line; [3]) [nM] | SMILES | further results
20 | 368 | 857 |  |  | Cc1cc(Cn2c(=O)c3cc(S(=O)(=O)NC4(CF)CC4)ccc3n(Cc3ncnn3C)c2=O)on1 [Example 557, N-[1-(Fluoromethyl)cyclopropyl]-3-[(3-methylisoxazol-5-yl)methyl]-1-[(2-methyl-1,2,4-triazol-3-yl)methyl]-2,4-dioxo-quinazoline-6-sulfonamide] | 
21 | 95 | 570 |  |  | Cc1cc(Cn2c(=O)n(Cc3cnn(C)c3)c(=O)c3cc(S(=O)(=O)NC4(CF)CC4)ccc32)[nH]n1 [Example 561, N-[1-(Fluoromethyl)cyclopropyl]-3-[(1-methylpyrazol-4-yl)methyl]-1-[(3-methyl-1H-pyrazol-5-yl)methyl]-2,4-dioxo-quinazoline-6-sulfonamide] | 
22 | 71 | 167 |  |  | Cc1ccc(Cn2c(=O)n(Cc3cnn(C)c3)c(=O)c3cc(S(=O)(=O)NC4(CF)CC4)ccc32)cn1 [Example 573, N-[1-(Fluoromethyl)cyclopropyl]-3-[(1-methylpyrazol-4-yl)methyl]-1-[(6-methyl-3-pyridyl)methyl]-2,4-dioxo-quinazoline-6-sulfonamide] | 
23 | 151 | 86 |  |  | Cn1cc(Cn2c(=O)c3cc(S(=O)(=O)NC4(CF)CC4)ccc3n(CCF)c2=O)cn1 [Example 544, 1-(2-Fluoroethyl)-N-[1-(fluoromethyl)cyclopropyl]-3-[(1-methylpyrazol-4-yl)methyl]-2,4-dioxo-quinazoline-6-sulfonamide] | 
24 | 152 | 182 |  |  | Cc1nc(Cn2c(=O)n(Cc3cnn(C)c3)c(=O)c3cc(S(=O)(=O)NC4(CF)CC4)ccc32)no1 [Example 546, N-[1-(Fluoromethyl)cyclopropyl]-1-[(5-methyl-1,2,4-oxadiazol-3-yl)methyl]-3-[(1-methylpyrazol-4-yl)methyl]-2,4-dioxo-quinazoline-6-sulfonamide] | 
25 |  |  | 164 |  | Cn1cc(Cn2c(=O)c3cc(S(=O)(=O)NC4(C#N)CC4)ccc3n(CC3COC3)c2=O)cn1 [Example 354] | IC50 (PARG in HeLa cell line; [4]): 18000 nM
26 |  |  | 96 | 164 | Cc1cc(Cn2c(=O)c3cc(S(=O)(=O)NC4(C)CC4)ccc3n(Cc3cnn(C)c3)c2=O)on1 [Example 330] | 
27 | 126 | 238 |  |  | Cn1cc(Cn2c(=O)c3cc(S(=O)(=O)NC4(CF)CC4)ccc3n(CC3(CO)CC3)c2=O)cn1 [Example 570, N-[1-(Fluoromethyl)cyclopropyl]-1-[[1-(hydroxymethyl)cyclopropyl]methyl]-3-[(1-methylpyrazol-4-yl)methyl]-2,4-dioxo-quinazoline-6-sulfonamide] | 
28 |  |  | 73 | 70 | Cn1cc(Cn2c(=O)c3cc(S(=O)(=O)NC4(C)CC4)ccc3n(CCC3CC3)c2=O)cn1 [Example 296] | 
29 |  |  | 102 |  | Cn1cc(Cn2c(=O)c3cc(S(=O)(=O)NC4(C)CC4)c(F)cc3n(Cc3ccc(F)cc3)c2=O)cn1 [Example 390, 7-Fluoro-1-[(4-fluorophenyl)methyl]-N-(1-methylcyclopropyl)-3-[(1-methylpyrazol-4-yl)methyl]-2,4-dioxo-quinazoline-6-sulfonamide] | IC50 (PARG in HeLa cell line; [4]): 70 nM
30 |  |  | 418 | 6480 | CN(C)C(=O)Cn1c(=O)n(Cc2cnn(C)c2)c(=O)c2cc(S(=O)(=O)NC3(C)CC3)ccc21 [Example 265] | 
31 |  |  | 48 | 116 | Cn1cc(Cn2c(=O)c3cc(S(=O)(=O)NC4(C)CC4)ccc3n(Cc3cnn(C)c3)c2=O)cn1 [Example 328] | 
32 |  |  | 396 | 16600 | Cn1cc(Cn2c(=O)c3cc(S(=O)(=O)NC4(C#N)CC4)ccc3n(CC#N)c2=O)cn1 [Example 356] | 
33 | 112 |  |  |  | Cn1cc(Cn2c(=O)c3cc(S(=O)(=O)NC4(CF)CC4)ccc3n(Cc3cn(C)nn3)c2=O)cn1 [Example 593, N-[1-(Fluoromethyl)cyclopropyl]-3-[(1-methylpyrazol-4-yl)methyl]-1-[(1-methyltriazol-4-yl)methyl]-2,4-dioxo-quinazoline-6-sulfonamide] | IC50 (PARG in HeLa cell line; MMS treatment, read-out: PARG Cell IC50): 523 nM
34 |  |  | 491 | 2110 | Cn1cc(Cn2c(=O)c3cc(S(=O)(=O)NC4(C#N)CC4)ccc3n(C)c2=O)cn1 [Example 344] | 
35 | 411 | 571 |  |  | Cc1cc(Cn2c(=O)c3cc(S(=O)(=O)NC4(CF)CC4)ccc3n(CC#N)c2=O)on1 [Example 523, 1-(Cyanomethyl)-N-[1-(fluoromethyl)cyclopropyl]-3-[(3-methylisoxazol-5-yl)methyl]-2,4-dioxo-quinazoline-6-sulfonamide] | 
